Where two headings read alike, the source gives them in different places.

Consider one compound from patent US10072026B2, “Crystalline form of 3-((1R,3s,5S)-3-((7-((5-methyl-1H-pyrazol-3-yl)amino)-1,6-naphthyridin-5-yl)amino)-8-azabicyclo[3.2.1]octan-8-yl)propanenitrile” (priority 2015, dated 2018).

A short description of one data set: in vivo. Set-up: species or system Sprague Dawley rats. As to conditions: Sprague Dawley, rat, po, 5 mg/kg. As to the method: Assay 5: Colon Pharmacokinetics in Rats
Test compounds were individually formulated in 0.5% methyl-cellulose in water and dosed via oral gavage at 5 mg/kg to Sprague Dawley rats. At various time points (typically 1, 2, 4, 6, 24 hr) post dosing, blood samples were removed via cardiac puncture and intact colons were excised from the rats. Blood samples were centrifuged at 1500×g for 15 min to collect plasma. Colons were washed with ice cold phosphate buffered saline (PBS), weighed, and homogenized at a dilution of 1:10 in PBS. Plasma and colon levels of test compound were determined by LC-MS analysis against analytical standards constructed into a standard curve in the test matrix. A colon to plasma ratio was determined as the ratio of the colon AUC to the plasma AUC in μg hr/g.

The nature of data set [1]: Pharmacokinetics in plasma and the GI tract in rats. Format: in vivo, Sprague Dawley rats. As to conditions: rat, 5 mg/kg oral, all time points (0.5-24 hr); below limit of quantitation. As to the method:
Assay 6: Pharmacokinetics in Plasma and the GI Tract in Rats and Dogs A test compound was dosed to male Sprague Dawley rats (n=3) as described in Assay 5. […] At all time points, the plasma concentration was below the limit of quantitation of 0.001 μg/mL.

Data set [2] in a line: Pharmacokinetics in plasma and the GI tract in dogs. Format: in vivo. Conditions: male, beagle, GI tissue (duodenum, ileum, cecum, colon) and plasma, dog, 5 mg/kg oral. The method, then: Assay 6: Pharmacokinetics in Plasma and the GI Tract in Rats and Dogs
An analogous experiment was performed in dogs. Male beagle dogs (n=2) were dosed via oral gavage with 5 mg/kg of test compound, formulated as above. In dog number 1, plasma samples were taken at 0.25, 1, 2, 4, 6, and 24 hr post dosing. In dog number 2, plasma samples were taken to 6 hr. In both dog number 1 (at 24 hr) and dog number 2 (at 6 hr) the GI tract was removed and segmented as follows: duodenum, ileum, cecum and the colon segmented into equal thirds (proximal, middle, and distal colon). For each of the GI segments, an approximately 2 cm piece was excised in the middle of the segment. Each was washed thoroughly in ice cold PBS buffer and then homogenized in 5 volumes of PBS buffer and analyzed as above. […] The GI tissue to plasma ratio ranged from about 7 to about 30 for collections conducted at 24 hours post oral dose.

Data set [3] has as its system oxazolone-induced colitis. In words: Mouse model of oxazolone-induced colitis. The format is in vivo, BALB/C mice. The method in brief:
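Adult BALB/c mice skin-sensitized with 4% oxazolone on day 1, then challenged intrarectally 7 days later with 50 μL 1% oxazolone. Compound dosed PO, BID or TID, starting one day before challenge. Blinded Disease Activity Index (stool consistency, bleeding, weight loss, averaged) scored 2 days post-challenge.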

The subject of the next data set is mouse splenic NK cells. In words: Immunosuppression effects in mouse splenic natural killer (NK) cells. The format is in vivo, Balb/C mice. As to conditions: mouse spleen, PO BID three days. As to the method:
Adult male Balb/C mice (12-14 weeks of age) from Harlan were used for the study. […] Spleens were harvested 1 or 2 h post last dose and crushed immediately for cell subtype staining. Prior to fixation, fluorophore-labelled antibodies for CD19 (FITC; B cells), CD3e (PE; pan T cells) and DX5 (APC; NK cells) were incubated with splenocyte samples from each animal to allow for simultaneous, multiple subtype % analysis on the flow cytometer. The number of total spleen cells for each animal was measured by Scepter™ 2.0 Handheld Automated Cell Counter. The absolute number of lymphocyte subtype population (e.g., splenic B, T and NK cells) was calculated from the percentage of each subtype times total spleen cells for each animal. A one way ANOVA, with Dunnett's post hoc test, was used to compare the splenic lymphocytes number of the vehicle and test compound groups. The a level was set at p<0.05. Data were presented as the mean±SEM for each group.

Data set [4] in a line: First in human study of safety, tolerability and pharmacokinetics in healthy subjects. Format: in vivo. As to conditions: for Cmax at 14 days / Cmax: human, plasma, oral, healthy subjects; for Cmax at 14 days: 14 days administration up to 300 mg; for Cmax: single dose up to 1000 mg. As to the method: Assay 9: First in Human Study to Evaluate the Safety, Tolerability and Pharmacokinetics in Healthy Subjects
The compound of Example 1 was evaluated in a double-blinded, randomized, placebo-controlled, single ascending dose (SAD) and multiple ascending dose (MAD) study of safety, tolerability, and pharmacokinetics in healthy subjects. Pharmacokinetic samples were collected up to 72 hours post the final dose in both the SAD study (after the first dose) and MAD study (after 14 days of once-daily dosing). The SAD study enrolled 5 cohorts and the MAD study enrolled 4 cohorts totaling 72 subjects, of which 71 completed the dosing period.
Plasma pharmacokinetic (PK) parameters were determined by non-compartmental analysis using WinNonLin Version 6.4.0 (Pharsight, St Louis, Mo.). The plasma PK parameter presented here is:
Cmax: maximum concentration in plasma

In data set [5] the test system is IL-4 induced STAT6 phosphorylation in THP-1 human monocytic cells. In words: Cellular JAK potency assay, THP-1. Conditions: Homo sapiens, THP-1, read-out: THP-1 IL4 pIC50 (converted).
The subject of data set [6] is IL-13 induced STAT6 phosphorylation in BEAS-2B human lung epithelial cells. In words: AlphaScreen cellular JAK potency assay, BEAS-2B. As to conditions: Homo sapiens, BEAS-2B, read-out: BEAS2B pIC50 (converted).
[7] abbreviates: read-out: average Cmax plasma concentration.
Where [8] appears, read: read-out: individual subject Cmax.

`Cc1cc(Nc2cc3ncccc3c(N[C@@H]3C[C@H]4CC[C@@H](C3)N4CCC#N)n2)n[nH]1` [Example 1, 3-((1R,3s,5S)-3-((7-((5-methyl-1H-pyrazol-3-yl)amino)-1,6-naphthyridin-5-yl)amino)-8-azabicyclo[3.2.1]octan-8-yl)propanenitrile] gave a Kp in “in vivo” above 450. This compound registered a plasma concentration in data set [1] below 1 ng/mL. The Kp at 6 hours in data set [2] (6 hours post dose, read-out: ratio of concentration in GI tissue to plasma) lay in the range of 9 to 165. Further, the Kp at 24 hours in data set [2] (24 hours post dose, read-out: GI tissue to plasma ratio) fell in the range of 7 to 30. For the same compound, the “minimal dose that caused a significant anti-colitic effect” value in data set [3] (mouse oxazolone-induced colitis) was 1 mg/kg. The “decrease in DAI score as compared with vehicle treated animals” value in data set [3] (mouse, PO, 1, 3, and/or 10 mg/kg BID) is “statistically significant decrease”. Further, in the data set with mouse splenic NK cells, the “treatment effect on B and T cell populations” value is “No treatment effect”. The “drug concentration in stool samples” value in data set [4] (healthy human subjects) is “high drug concentration”. Moreover, the Cmax at 14 days is below 15 ng/mL in data set [4] (setting [7]) and at most 30 ng/mL in data set [4] (setting [8]). For the same compound, the Cmax is below 50 ng/mL in data set [4] (setting [7]) and at most 100 ng/mL in data set [4] (setting [8]). Further, the IC50 in data set [5] and in data set [6] was 31.6 to 200 nM in each case.
